Assay: method code SF-AS, from DOI: 10.1016/0223-5234(96)88212-2
Conditions: pH 7.4

SMILES | logD
Clc1ccccc1N1CCN(CCCOn2nnc3ccccc32)CC1 | 3.6
Clc1ccccc1N1CCN(CCn2nnc3ccccc32)CC1 | 3.35
